Assay results reported in patent publication US20060252706A1, “Composition for slimming” (priority 2003, published 2006).

Key:
[1] = system: skin of a New Zealand white rabbit; assay: Skin irritation (Draize Primary Irritation Index)
Experimental: Skin irritations caused by theanine, caffeine, genistein, L-carnitine and catechin were measured observing edema and erythema on the skin of a New Zealand white rabbit.
Vehicle, 10% of theanine, caffeine, genistein, L-carnitine, catechin or mixture thereof were applied on the skin of a New Zealand white rabbit, twice a day for 4 days, total 8 times. After application, total skin irritation index was calculated by summing up the scores of erythema and edema. The skin irritation index was calculated according to Draize's skin Primary Irritation Index (P.I.I.) (Draize, J. H., Appraisal of the safety of chemical in foods, drugs and cosmetics).

β3-adrenergic receptor = assay: Expression of β3-adrenergic receptor by RT-PCR in 3T3-L1 fat cells; assay type: cell-based, rat; details: 0.005%, 24 hours, FIG. 2
Experimental: (§1) 3T3-L1 cell, fibroblast cell line of […], was inoculated in 6 well culture plate with 1×10^5cells/well and cultured in DMEM (Dulbecos modified eagles medium, GIBCO BRL, Life Technologes) containing 10% of fetal bovine serum (FBS). After 2 days of culture, culture medium was changed with a new DMEM (containing 10% FBS), and cultured further 2 days. Then the culture cell was deposited in a new DMEM (containing 10% FBS) containing 1 μg/ml of insulin, 0.5 mM of IBMX and 0.25 μM of dexamethasone to induce differentiation, after 2 days, the culture medium was changed with a new DMEM containing insulin, and cultured for 5 days. After 5 days of culture, the culture medium was changed with a normal DMEM (containing 10% FBS), and observed until cells changed to fat cells (adipocytes).
In order to clarify the mechanism of acceleration of decomposition of neutral fat by the theanine, 3T3-L1 fat cells differentiated in the Reference Example 2 were used. The cells were treated with 0.005% of theanine purchased from KuridaKogyo (Japan) (more than 97%) and comparative materials (caffeine, control), and 24 hours later, RNAs were extracted from the cells and performed RT-PCR. The RT-PCR kit was purchased from TaKaRa, and primer of β3 -adrenergic receptor was purchased from Bioneer.

3T3-L1 fat cells [2] = assay: Decomposition of fat: glycerol isolated into culture medium from 3T3-L1 fat cells; assay type: cell-based, rat; details: FIG. 1
Experimental: as §1
The degree of the decomposition of fat was observed by measuring the concentration of glycerol isolated into the culture medium from fat cell. Measurement of the quantity of the glycerol was performed with chromphoric reaction method using GPO-trinder kit purchased from Sigma (St. Louis, Mo., U.S.A.), and absorption was measured in 540 nm using ELISA reader, then the result of each component was calculated based on the data of the control settled to be 100%. […]

3T3-L1 cells = assay: Accumulation of neutral fat in fat cells (GPO-trinder, absorption at 540 nm); assay type: cell-based, rat; details: 3T3-L1 cells treated during cell differentiation; compared with control; FIG. 4
Experimental: as §1
3T3-L1 fat cells differentiated in the Reference Example 2 were washed with PBS (phosphate buffered saline) three times, and harvested with extraction buffer (20 mM of Tris, 1 mM of EDTA and 1 mM of 2-mercaptoethanol). The harvested cells passed G26 needle 6 times on an ice base, centrifuged at 15000×g, 4° C. for 3 minutes and the supernatant was gathered to obtain cell extracts. […]
Neutral fats in the cell extracts obtained same as Experimental Example 3 underwent chromphoric reaction using GPO-trinder kit purchased from Sigma (St. Louis, Mo., U.S.A.), and absorption was measured at 540 nm using ELISA reader.

3T3-L1 fat cells [3] = assay: Cell toxicity of theanine at high concentration; assay type: cell-based, mouse
[4] = New Zealand white, rabbit, in vivo, 4 days
[5] = New Zealand white rabbit, compared with control

| Structure (SMILES) | Primary Irritation Index (0˜4) [1, 4] | skin irritation ([1]; rabbit, in vivo) | Primary Irritation Index (0˜4) ([1]; 10% solution on rabbit skin, twice a day for 4 days, total 8 times) | skin irritation [1, 5] | expression of β3-adrenergic receptor (β3-adrenergic receptor) | concentration of glycerol isolated into the culture medium from fat cell (3T3-L1 fat cells [2]; compared with the control (100%)) | effect of decomposition of fat compared with caffeine (positive comparative control) (3T3-L1 fat cells [2]; same concentration of caffeine) | amount of neutral fat (3T3-L1 cells) | cell toxicity (3T3-L1 fat cells [3]) |
| --- | --- | --- | --- | --- | --- | --- | --- | --- | --- |
| C[N+](C)(C)C[C@H](O)CC(=O)[O-] [L-carnitine] | 0.7 | do not cause skin irritation | – | – | – | – | – | – | – |
| O=c1c(-c2ccc(O)cc2)coc2cc(O)cc(O)c12 [genistein] | – | – | 0.8 | do not cause skin irritation | – | – | – | – | – |
| Cn1c(=O)c2c(ncn2C)n(C)c1=O [caffeine, reference compound] | 0.7 | – | – | do not cause skin irritation | – | – | – | – | – |
| CCNC(=O)CC[C@H](N)C(=O)O [theanine] | 0.8 | do not cause skin irritation | – | – | increases | increased | more excellent effect of decomposition of fat than that of caffeine | decreased | does not cause cell toxicity |
